Assays:
Human P2Y12 receptor = molecular target: T1, Human P2Y12 receptor (Homo sapiens, UniProt Q9H244); experiment: Human P2Y12 receptor cell membrane binding assay with [3H] 2-Mes-ADP; settings: 1 nM [3H] 2-Mes-ADP, membranes of HEK cells expressing P2Y12 receptor; read-out: Binding activity (IC50)
T1 construct: expressed in transfected cells; host or cells: HEK cells
Outline: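 Membranes from HEK cells expressing human P2Y12 were incubated with compound and 1 nM [3H]2-MeS-ADP for 1 h at room temperature. Bound radioactivity was collected by GF/B filtration.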

[1] = test system: Human platelet aggregation caused by ADP; experiment: Inhibition of ADP-induced platelet aggregation (Mimic-human PRP); assay type: cell-based; settings: 20 μM ADP, human platelet concentrate diluted with PPP, absorption at 595 nm
Outline: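 Human PRP diluted with PPP to 3–4×10^8 platelets/mL was preincubated 20 min at room temperature with compound (0.01–30 μM, DMSO), then stimulated with 20 μM ADP. Aggregation read as A595 increase at 3 min versus 0 and 20 μM ADP controls; Ki from sigmoidal non-linear regression.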

T1 sequence (Q9H244 whole entry): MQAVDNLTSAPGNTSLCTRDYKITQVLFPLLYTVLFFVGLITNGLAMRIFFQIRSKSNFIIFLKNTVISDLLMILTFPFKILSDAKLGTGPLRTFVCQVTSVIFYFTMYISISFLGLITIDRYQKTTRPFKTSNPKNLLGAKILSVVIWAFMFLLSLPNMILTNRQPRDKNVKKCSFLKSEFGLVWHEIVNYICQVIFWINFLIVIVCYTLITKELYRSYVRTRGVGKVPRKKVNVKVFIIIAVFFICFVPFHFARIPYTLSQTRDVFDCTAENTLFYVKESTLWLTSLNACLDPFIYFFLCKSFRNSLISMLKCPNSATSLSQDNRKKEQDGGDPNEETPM

| Structure (SMILES) | IC50 (Human P2Y12 receptor) | Ki [1] |
| --- | --- | --- |
| CCCc1cc2c(N3CCn4c(nnc4C(F)(F)F)C3)nc(N3CC[C@H](NC(=O)Cc4c[nH]cn4)C3)nc2s1 [Example 1-120, 2-(1H-Imidazol-4-yl)-N-{(S)-1-[6-propyl-4-(3-trifluoromethyl-5,6-dihydro-8H-[1,2,4]triazolo[4,3-a]pyrazin-7-yl)-thieno[2,3-d]pyrimidin-2-yl]-pyrrolidin-3-yl}-acetamide] | 38 nM | 16 nM |
| CCCc1cc2c(N3CCn4c(nnc4C(F)(F)F)C3)nc(NCCOCC)nc2s1 [Example 1-122, (2-Ethoxy-ethyl)-[6-propyl-4-(3-trifluoromethyl-5,6-dihydro-8H-[1,2,4]triazolo[4,3-a]pyrazin-7-yl)-thieno[2,3-d]pyrimidin-2-yl]-amine] | 220 nM | 467 nM |
| CCCc1cc2c(N3CCn4c(nnc4C(F)(F)F)C3)nc(NCCOCCO)nc2s1 [Example 1-123, 2-{2-[6-Propyl-4-(3-trifluoromethyl-5,6-dihydro-8H-[1,2,4]triazolo[4,3-a]pyrazin-7-yl)-thieno[2,3-d]pyrimidin-2-ylamino]-ethoxy}-ethanol] | 260 nM | 367 nM |
| CCCc1cc2c(N3CCn4c(nnc4C(F)(F)F)C3)nc(N3CCC[C@H](N)C3)nc2s1 [Example 1-125, (S)-1-[6-Propyl-4-(3-trifluoromethyl-5,6-dihydro-8H-[1,2,4]triazolo[4,3-a]pyrazin-7-yl)-thieno[2,3-d]pyrimidin-2-yl]-piperidin-3-ylamine] | 150 nM | 45 nM |
| CCCc1cc2c(N3CCn4c(nnc4C(F)(F)F)C3)nc(N[C@H]3CCNC3)nc2s1 [Example 1-126, [6-Propyl-4-(3-trifluoromethyl-5,6-dihydro-8H-[1,2,4]triazolo[4,3-a]pyrazin-7-yl)-thieno[2,3-d]pyrimidin-2-yl]-(S)-pyrrolidin-3-yl-amine] | 130 nM | 29 nM |
| CCCc1cc2c(N3CCn4c(nnc4C(F)(F)F)C3)nc(N3CCC(C(=O)NS(=O)(=O)Cc4ccccc4)CC3)nc2s1 [Example 1-127, C-Phenyl-N-{1-[6-propyl-4-(3-trifluoromethyl-5,6-dihydro-8H-[1,2,4]triazolo[4,3-a]pyrazin-7-yl)-thieno[2,3-d]pyrimidin-2-yl]-piperidine-4-carbonyl}-methanesulfonamide] | 100 nM | 900 nM |
| CCCc1cc2c(N3CCn4c(nnc4C(F)(F)F)C3)nc(NCCN3CSCC3=O)nc2s1 [Example 1-128, 3-{2-[6-Propyl-4-(3-trifluoromethyl-5,6-dihydro-8H-[1,2,4]triazolo[4,3-a]pyrazin-7-yl)-thieno[2,3-d]pyrimidin-2-ylamino]-ethyl}-thiazolidin-4-one] | 100 nM | 61 nM |
| CCCc1cc2c(N3CCn4c(nnc4C(F)(F)F)C3)nc(N[C@@H]3CCNC3)nc2s1 [Example 1-130, [6-Propyl-4-(3-trifluoromethyl-5,6-dihydro-8H-[1,2,4]triazolo[4,3-a]pyrazin-7-yl)-thieno[2,3-d]pyrimidin-2-yl]-(R)-pyrrolidin-3-yl-amine] | 320 nM | 132 nM |
| CCCc1cc2c(N3CCn4c(nnc4C(F)(F)F)C3)nc(Nc3nc(C(=O)O)cs3)nc2s1 [Example 1-132, 2-[6-Propyl-4-(3-trifluoromethyl-5,6-dihydro-8H-[1,2,4]triazolo[4,3-a]pyrazin-7-yl)thieno[2,3-d]pyrimidin-2-ylamino]thiazole-4-carboxylic acid] | 47 nM | 100 nM |
| CCCc1cc2c(N3CCn4c(nnc4C(F)(F)F)C3)nc(N3CCNc4ncccc43)nc2s1 [Example 1-134, 1-[6-Propyl-4-(3-trifluoromethyl-5,6-dihydro-8H-[1,2,4]triazolo[4,3-a]pyrazin-7-yl)thieno[2,3-d]pyrimidin-2-yl]-1,2,3,4-tetrahydro-pyrido[2,3-b]pyrazine] | 1000 nM | 869 nM |
